For 13 compounds, Ki, EC50 and half-life results are on record in US9296741B2, “Bromodomain inhibitors” (priority 2012, dated 2016).

pEC50, pKi: −log10 of the molar value.

The target in data set [1] is human BRD4 first bromodomain (BDI_K57-E168) (Homo sapiens (Human), UniProt O60885). Briefly: TR-FRET bromodomain binding assay, BRD4 first bromodomain. For orientation: Time-resolved FRET reads energy transfer from a long-lived donor to a nearby acceptor.
For data set [2], the target named is human BRD4 second bromodomain (BDII_E352-M457) (Homo sapiens (Human), UniProt O60885). The experiment in a line: TR-FRET bromodomain binding assay, BRD4 second bromodomain.
Data set [3] deals with breast cancer cell line MX-1. The experiment in a line: MX-1 cell line proliferation assay. In kind it is cell-based, human. Conditions: Homo sapiens, MX1, 72 h; MX-1 cells, 3-day proliferation, Cell Titer Glo; read-out: Cellular proliferation: EC50. For orientation: ATP-based viability assays read luminescence as a measure of living cells.
Data set [4] is described as follows: Human liver microsome stability assay. It counts as in vitro ADME. Conditions: both sexes, human, microsomes, pH 7.4. A general note: Liver microsomes are vesicles of endoplasmic reticulum, rich in cytochrome P450 enzymes.
Data set [5] in a line: Rat liver microsome stability assay. Conditions: rat liver microsomes (male Sprague-Dawley), 0.5 μM test compound, 0.25 mg/mL microsomal protein, pH 7.4, 37° C.; read-out: Stability in rat liver microsomes (t1/2 in minutes). In kind it is in vitro ADME.
The nature of data set [6]: Mouse liver microsome stability assay. It counts as in vitro ADME. Conditions: male, CD1, mouse, microsomes, pH 7.4.

By pKi is commonly meant −log10 of the Ki, conventionally taken in molar units. Read a high pKi as a low Ki. With `Cn1cc(-c2cc(NS(=O)(=O)C3CC3)ccc2Oc2ccc(F)cc2F)c2cc[nH]c2c1=O` [Example 235, N-[4-(2,4-difluorophenoxy)-3-(6-methyl-7-oxo-6,7-dihydro-1H-pyrrolo[2,3-c]pyridin-4-yl)phenyl]cyclopropanesulfonamide], the values for the pKi in data set [1] and in data set [2] were 7.76 and 8.15, respectively. The pEC50 in data set [3] is 7.18. The half-life at 0.5 μM amounted to 81 min in data set [4], 49 min in data set [5] and 22 min in data set [6].
Turning to `Cn1cc(-c2cc(S(C)(=O)=O)ccc2Oc2ccc(F)cc2F)c2cc(CNc3nccs3)[nH]c2c1=O` [Example 283, 4-[2-(2,4-difluorophenoxy)-5-(methylsulfonyl)phenyl]-6-methyl-2-[(1,3-thiazol-2-ylamino)methyl]-1,6-dihydro-7H-pyrrolo[2,3-c]pyridin-7-one], the pKi in data set [1] was 7.72; in data set [2], 7.46. Moreover, in data set [3], the pEC50 is 6.86. For the same compound, the half-life at 0.5 μM was determined as 7 min in data set [4], 22 min in data set [5] and 12 min in data set [6].
`Cn1cc(-c2cc(NS(C)(=O)=O)ccc2Oc2ccc(C#N)cc2)c2cc[nH]c2c1=O` [Example 33, N-[4-(4-cyanophenoxy)-3-(6-methyl-7-oxo-6,7-dihydro-1H-pyrrolo[2,3-c]pyridin-4-yl)phenyl]methanesulfonamide]: the pKi is 8.59 in data set [1] and 8.32 in data set [2]. Also, in data set [3], the pEC50 is 7.38. In addition, the half-life at 0.5 μM in data set [4] is more than 120 min; in data set [5], more than 120 min; in data set [6], 46 min.
In the case of `CCS(=O)(=O)c1ccc(Oc2ccc(F)cc2F)c(-c2cn(C)c(=O)c3[nH]ncc23)c1` [Example 322, 4-[2-(2,4-difluorophenoxy)-5-(ethylsulfonyl)phenyl]-6-methyl-1,6-dihydro-7H-pyrazolo[3,4-c]pyridin-7-one], the figures for the pKi in data set [1] and in data set [2] were 6.74 and 7.34, respectively. In data set [3], the pEC50 was 7.18. Also, the figures for the half-life at 0.5 μM in data set [4], in data set [5] and in data set [6] were more than 120 min, 57 min and more than 120 min, respectively.
Take `Cn1cc(-c2cc(S(=O)(=O)N3CCc4ccccc43)ccc2Oc2ccc(F)cc2F)c2cc[nH]c2c1=O` [Example 319, 4-[2-(2,4-difluorophenoxy)-5-(2,3-dihydro-1H-indol-1-ylsulfonyl)phenyl]-6-methyl-1,6-dihydro-7H-pyrrolo[2,3-c]pyridin-7-one]: the pKi was 6.43 in data set [1] and 8.00 in data set [2]. Further, the pEC50 in data set [3] is 6.36. The half-life at 0.5 μM in data set [4], in data set [5] and in data set [6] was 2 min each time.
Regarding `CN1CCN(Cc2cc3c(-c4cc(S(C)(=O)=O)ccc4Oc4ccc(F)cc4F)cn(C)c(=O)c3[nH]2)CC1` [Example 281, 4-[2-(2,4-difluorophenoxy)-5-(methylsulfonyl)phenyl]-6-methyl-2-[(4-methylpiperazin-1-yl)methyl]-1,6-dihydro-7H-pyrrolo[2,3-c]pyridin-7-one], the negative-log Ki (pKi) in data set [1] was 8.74; in data set [2], 6.97. Further, in data set [3], the pEC50 is 6.72. Besides, the half-life at 0.5 μM in data set [4] amounted to 25 min; in data set [5], 119 min; in data set [6], 116 min.
In the case of `CN(C)C(=O)c1cc2c(-c3cc(S(C)(=O)=O)ccc3Oc3ccc(F)cc3F)cn(C)c(=O)c2[nH]1` [Example 269, 4-[2-(2,4-difluorophenoxy)-5-(methylsulfonyl)phenyl]-N,N,6-trimethyl-7-oxo-6,7-dihydro-1 H-pyrrolo[2,3-c]pyridine-2-carboxamide], the pKi in data set [1] was 7.91; in data set [2], 7.24. The pEC50 in data set [3] was 6.48. Moreover, the half-life at 0.5 μM in data set [4] amounted to 79 min; in data set [5] it was 83 min; in data set [6] it was 58 min.
`CNS(=O)(=O)c1cnc(OCC2CC2)c(-c2cn(C)c(=O)c3[nH]ccc23)c1` [Example 208, 6-(cyclopropylmethoxy)-N-methyl-5-(6-methyl-7-oxo-6,7-dihydro-1H-pyrrolo[2,3-c]pyridin-4-yl)pyridine-3-sulfonamide]: the figures for the pKi in data set [1] and in data set [2] were 8.25 and 8.22, respectively. In addition, the pEC50 in data set [3] was 7.63. Further, the half-life at 0.5 μM stood at 88 min in data set [4], 23 min in data set [5] and 37 min in data set [6].
`CCNC(=O)c1ccc(Oc2ccccc2)c(-c2cn(C)c(=O)c3[nH]ccc23)c1` [Example 13, N-ethyl-3-(6-methyl-7-oxo-6,7-dihydro-1H-pyrrolo[2,3-c]pyridin-4-yl)-4-phenoxybenzamide]: the values for the pKi in data set [1] and in data set [2] were 8.43 and 8.47, respectively. Further, the pEC50 in data set [3] was 6.89. Moreover, the half-life at 0.5 μM in data set [4] is 66 min; in data set [5] it was 2 min; in data set [6], 22 min.
As to `CN(C)C1CCN(S(=O)(=O)c2ccc(OCC3CC3)c(-c3cn(C)c(=O)c4[nH]ccc34)c2)C1` (stereo not drawn) [Example 310, 4-[2-(cyclopropylmethoxy)-5-{[3-(dimethylamino)pyrrolidin-1-yl]sulfonyl}phenyl]-6-methyl-1,6-dihydro-7H-pyrrolo[2,3-c]pyridin-7-one], the figures for the pKi in data set [1] and in data set [2] were 7.39 and 7.15, respectively. For the same compound, the pEC50 in data set [3] was 6.99. The half-life at 0.5 μM was found to be 8 min in data set [4], 5 min in data set [5] and 9 min in data set [6].
`Cn1cc(-c2cc(S(=O)(=O)C(F)(F)F)ccc2OCC2CC2)c2cc[nH]c2c1=O` [Example 243, 4-{2-(cyclopropylmethoxy)-5-[(trifluoromethyl)sulfonyl]phenyl}-6-methyl-1,6-dihydro-7H-pyrrolo[2,3-c]pyridin-7-one]: the values for the pKi in data set [1] and in data set [2] were 7.94 and 7.42, respectively. The pEC50 in data set [3] is 6.60. Besides, the half-life at 0.5 μM in data set [4] is more than 120 min; in data set [5], 20 min; in data set [6], 109 min.
For `COCCS(=O)(=O)Nc1ccc(Oc2ccc(F)cc2F)c(-c2cn(C)c(=O)c3[nH]ccc23)c1` [Example 236, N-[4-(2,4-difluorophenoxy)-3-(6-methyl-7-oxo-6,7-dihydro-1H-pyrrolo[2,3-c]pyridin-4-yl)phenyl]-2-methoxyethanesulfonamide], the pKi in data set [1] was 7.84; in data set [2], 8.29. The pEC50 in data set [3] was 7.60. In addition, the half-life at 0.5 μM was determined as 33 min in data set [4], 32 min in data set [5] and 15 min in data set [6].
On to `Cn1cc(-c2cc(-c3cccc(C#N)c3)ccc2OCC2CC2)c2cc[nH]c2c1=O` [Example 353, 4′-(cyclopropylmethoxy)-3′-(6-methyl-7-oxo-6,7-dihydro-1H-pyrrolo[2,3-c]pyridin-4-yl)biphenyl-3-carbonitrile], for which the values for the pKi in data set [1] and in data set [2] were 6.80 and 6.59, respectively. In addition, the pEC50 in data set [3] is 6.10. The half-life at 0.5 μM in data set [4] was 40 min; in data set [5], 8 min; in data set [6] it was 10 min.
